Experimental data from US6136803A, “Antidepressants” (Merrell Pharmaceuticals Inc., priority 1998, dated 2000).
Where two headings read alike, the source gives them in different places.

Test system: -adrenergic receptors (rat cerebral cortical membranes)
Conditions: desipramine 5 mg/kg, i.p.; for [3H]-DHA Specifically Bound: six animals per group, mean ± SEM; for % Control ([3H]-DHA specifically bound): vs saline
Method: The number of -adrenergic receptors in rat cerebral cortical membranes was measured after a 4 day and 14 day course of one of the following treatments:
a) saline control (intraperitoneal injection - i.p.)
c) fluoxetine (10 mg/kg/day, i.p.) or (10 mg/kg bid, i.p.)
Male Sprague-Dawley rats (175-200 g) were assigned randomly to one of the four treatment groups above and were treated as indicated for either 4 or 14 days. The animals were sacrificed 24 hours after their last treatment and cerebral cortical membranes were isolated. These membranes were assayed for -adrenergic receptor number by the method of Bylund and Snyder [Mol. Pharmacol. 12, 568 (1976)] by measuring the amount of [^3 H]dihydro-alprenolol ([^3 H]-DHA) bound.

Structure (SMILES): CNCCC(Oc1ccc(C(F)(F)F)cc1)c1ccccc1 (stereo not shown) [Fluoxetine, fluoxetine]
- [3H]-DHA Specifically Bound (A) 14 days, fluoxetine 10 mg/kg, saline control 41.8 ± 1.4, * p<0.05 vs saline, + P<0.05 vs desipramine): 37.9 ± 1.8 fmol/mg protein
- % Control ([3H]-DHA specifically bound) (A) 14 days, fluoxetine 10 mg/kg): 91 % Control
- [3H]-DHA Specifically Bound (B) 4 days, fluoxetine 10 mg/kg bid, saline control 54.6 ± 3.1, * p<0.05 vs saline): 51.8 ± 1.7 fmol/mg protein
- % Control ([3H]-DHA specifically bound) (B) 4 days, fluoxetine 10 mg/kg bid): 95 % Control
